pIC50: −log10 of the molar value.

In one experiment the target is PDE10A (Homo sapiens (Human), UniProt Q9Y233). Put plainly: PDE10A inhibition assay. It counts as biochemical. The procedure, abridged:
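Human PDE10A catalytic domain (aa 440-779) was expressed in E. coli BL21(DE3), with enzyme set to convert 20-25% of substrate. Reactions used 5 nM [3H]cAMP in 50 mM HEPES pH 7.6, 10 mM MgCl2, 0.02% Tween20 and 0.1 mg/ml BSA for 1 h at rt, read by yttrium silicate SPA. IC50 is relative to the uninhibited control.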

In experiment [1] the test system is rats. As to conditions: cited from earlier work.
Experiment [2] concerns rats. As to conditions: cited from earlier work. This is another data set of the same source.
The test system of experiment [3] is rats. As to conditions: cited from earlier work. This is another data set of the same source.

Sequence of PDE10A (Q9Y233 716-1055): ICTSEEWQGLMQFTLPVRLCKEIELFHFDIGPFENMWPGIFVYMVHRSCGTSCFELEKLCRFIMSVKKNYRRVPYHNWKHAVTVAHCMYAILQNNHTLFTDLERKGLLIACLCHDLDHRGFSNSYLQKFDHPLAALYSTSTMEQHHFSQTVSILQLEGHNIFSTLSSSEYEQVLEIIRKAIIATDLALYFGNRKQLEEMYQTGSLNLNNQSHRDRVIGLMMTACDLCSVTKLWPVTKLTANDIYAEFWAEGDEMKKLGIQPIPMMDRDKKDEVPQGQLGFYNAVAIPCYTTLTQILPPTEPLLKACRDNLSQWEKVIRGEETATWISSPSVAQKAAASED

One may read the pIC50 as the IC50 on a negative log10 scale, so that one unit is a factor of ten. Lower therefore signals a high IC50. For `Cc1cccc2nc(CCc3nc(-c4cccs4)cn3C[C@@H](O)CNC(C)C)nn12` [(S)-1-Isopropylamino-3-{2-[2-(5-methyl-[1,2,4]triazolo[1,5-a]pyridin-2-yl)-ethyl]-4-thiophen-2-yl-imidazol-1-yl}-propan-2-ol], the pIC50 at PDE10A is 7.34.
On PDE10A, `CNC[C@H](O)Cn1cc(-c2cccs2)nc1CCc1nc2cccc(C)n2n1` [(S)-1-Methylamino-3-{2-[2-(5-methyl-[1,2,4]triazolo[1,5-a]pyridin-2-yl)-ethyl]-4-thiophen-2-yl-imidazol-1-yl}-propan-2-ol] had a pIC50 of 7.15.
Same read-out and setting: the figure for `Cc1cccc2nc(CCc3nc(-c4cccs4)cn3C[C@@H](O)CN(C)CCO)nn12` [(S)-1-[(2-Hydroxy-ethyl)-methyl-amino]-3-{2-[2-(5-methyl-[1,2,4]triazolo[1,5-a]pyridin-2-yl)-ethyl]-4-thiophen-2-yl-imidazol-1-yl}-propan-2-ol] is 7.80; for `Cc1cccc2nc(CCc3nc(-c4cccs4)cn3C[C@@H](O)CN3CCOCC3)nn12` [(S)-1-{2-[2-(5-Methyl-[1,2,4]triazolo[1,5-a]pyridin-2-yl)-ethyl]-4-thiophen-2-yl-imidazol-1-yl}-3-morpholin-4-yl-propan-2-ol] it is 7.85.
On the same count and under the same terms, the figure for `Cc1cccc2nc(CCc3nc(-c4cccs4)cn3C[C@@H](O)CN3CCCC3)nn12` [(S)-1-{2-[2-(5-Methyl-[1,2,4]triazolo[1,5-a]pyridin-2-yl)-ethyl]-4-thiophen-2-yl-imidazol-1-yl}-3-pyrrolidin-1-yl-propan-2-ol] is 7.24; for `Cc1cc(C)n2cc(CCc3nc(-c4cccs4)cn3[C@@H](C)CO)nc2n1` [(S)-2-{2-[2-(5,7-Dimethyl-imidazo[1,2-a]pyrimidin-2-yl)-ethyl]-4-thiophen-2-yl-imidazol-1-yl}-propan-1-ol] it is 8.06.
On the same count and under the same terms, the figure for `Cc1cccc2nc(CCc3nc(-c4cccs4)cn3[C@@H](C)CO)nn12` [(S)-2-{2-[2-(5-Methyl-[1,2,4]triazolo[1,5-a]pyridin-2-yl)-ethyl]-4-thiophen-2-yl-imidazol-1-yl}-propan-1-ol] is 8.19; for `CNCC[C@H](O)Cn1cc(-c2cccs2)nc1CCc1nc2cccc(C)n2n1` [(S)-4-Methylamino-1-{2-[2-(5-methyl-[1,2,4]triazolo[1,5-a]pyridin-2-yl)-ethyl]-4-thiophen-2-yl-imidazol-1-yl}-butan-2-ol] it is 7.29.
At PDE10A, `Cc1cnc(C)n2nc(CCc3nc(-c4nccs4)cn3C)nc12` [,8-Dimethyl-2-[2-(1-methyl-4-thiazol-2-yl-1H-imidazol-2-yl)-ethyl]-[1,2,4]triazolo[1,5-c]pyrimidine] gave a pIC50 of 7.92.
In the case of `COc1ccc(Cc2nccc3cc(OC)c(OC)cc23)cc1OC` [Papaverine, papaverine], in the experiment on rats [1] (alone), the “catalepsy on its own” value is reported as “did not cause catalepsy on its own”. In addition, in the experiment on rats [1] (with haloperidol), the “effect on the cataleptic effect of the D2 receptor antagonist haloperidol” value is reported as “potentiated the cataleptic effect”. In addition, the “hyperactivity induced by PCP” value with rats [2] is on record as “reduced hyperactivity”. For the same compound, in the experiment with rats [3], the “reduction of amphetamine induced hyperactivity” value is “insignificant”.
As for `Cc1cccc2nc(CCc3nc(-c4cccs4)cn3C[C@@H](O)CN(C)CC#N)nn12` [[((S)-2-Hydroxy-3-{2-[2-(5-methyl-[1,2,4]triazolo[1,5-a]pyridin-2-yl)-ethyl]-4-thiophen-2-yl-imidazol-1-yl}-propyl)-methyl-amino]-acetonitrile], the negative-log IC50 (pIC50) against PDE10A was 8.06.
